biological target: T1, androgen receptor (AR) (Homo sapiens, UniProt P10275, T878A); assay: PSA (6.1 kb)-luciferase reporter assay in LNCaP cells induced with R1881; assay type: cell-based; details: LNCaP cells transfected with PSA (6.1 kb)-luciferase; 1 h pre-treatment, R1881 1 nM, 48 h; relative luciferase activity
T1 construct: LNCaP cells express endogenous AR; endogenous in cells; host or cells: LNCaP
T1 sequence (P10275 1-920 T878A): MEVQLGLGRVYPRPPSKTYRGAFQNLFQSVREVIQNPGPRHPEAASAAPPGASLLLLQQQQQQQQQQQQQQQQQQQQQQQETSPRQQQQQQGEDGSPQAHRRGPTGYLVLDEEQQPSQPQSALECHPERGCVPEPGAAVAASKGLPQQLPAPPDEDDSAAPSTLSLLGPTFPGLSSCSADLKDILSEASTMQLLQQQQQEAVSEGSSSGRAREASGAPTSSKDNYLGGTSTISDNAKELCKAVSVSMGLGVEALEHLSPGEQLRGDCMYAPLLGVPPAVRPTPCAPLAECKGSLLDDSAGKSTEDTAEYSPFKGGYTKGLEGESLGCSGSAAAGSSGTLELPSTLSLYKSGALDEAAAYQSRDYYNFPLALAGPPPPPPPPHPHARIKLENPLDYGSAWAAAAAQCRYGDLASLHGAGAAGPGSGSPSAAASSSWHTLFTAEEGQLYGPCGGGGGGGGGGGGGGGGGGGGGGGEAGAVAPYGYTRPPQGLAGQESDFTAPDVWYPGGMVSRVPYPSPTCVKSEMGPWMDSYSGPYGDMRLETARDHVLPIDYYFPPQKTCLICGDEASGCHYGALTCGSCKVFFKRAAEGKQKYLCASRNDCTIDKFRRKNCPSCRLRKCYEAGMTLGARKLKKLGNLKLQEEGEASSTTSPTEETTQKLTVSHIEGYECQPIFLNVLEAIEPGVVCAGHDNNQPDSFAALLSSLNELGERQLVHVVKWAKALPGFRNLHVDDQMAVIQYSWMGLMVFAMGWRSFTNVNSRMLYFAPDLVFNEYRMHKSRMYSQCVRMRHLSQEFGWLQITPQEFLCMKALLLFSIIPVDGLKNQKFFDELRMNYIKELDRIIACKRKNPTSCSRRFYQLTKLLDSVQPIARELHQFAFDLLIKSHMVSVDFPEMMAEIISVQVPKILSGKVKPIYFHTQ
Source text: LNCaP cells were employed initially for all experiments because they are well-differentiated human prostate cancer cells in which ligand-independent activation of the AR by FSK has been characterized (Nazareth et al 1996 J. Biol. Chem. 271, 19900-19907; and Sadar 1999 J. Biol. Chem. 274, 7777-7783). LNCaP cells express endogenous AR and secrete prostate-specific antigen (PSA) (Horoszewicz et al 1983Cancer Res. 43, 1809-1818). LNCaP cells can be grown either as monolayers in cell culture or as tumors in the well-characterized xenograft model that progresses to androgen independence in castrated hosts (Sato et al 1996 J. Steroid Biochem. Mol. Biol. 58, 139-146; Gleave et al 1991 Cancer Res. 51, 3753-3761; Sato et al 1997 Cancer Res. 57, 1584-1589; and Sadar et al 2002 Mol. Cancer. Ther. 1(8), 629-637). R1881 was employed since it is stable and avoids problems associated with the labile physiological ligand dihydrotestosterone (DHT). Reporter specificity may be determined using several alternative reporter gene constructs. Some well characterized ARE-driven reporter gene constructs that have been used extensively are the PSA (6.1 kb) enhance/promoter which contains several AREs and is highly inducible by androgens as well as by FSK (Ueda et al 2002 A J. Biol. Chem. 277, 7076-7085) and the ARR3-thymidine kinase (tk)-luciferase, which is an artificial reporter construct that contains three tandem repeats of the rat probasin ARE1 and ARE2 regions upstream of a luciferase reporter (Snoek et al 1996 J. Steroid Biochem. Mol. Biol. 59, 243-250).
LNCaP cells were transiently cotransfected with PSA (6.1 kb)-luciferase (0.25 μg/well) in 24-well plates for 24 h prior to pre-treatment with compounds for 1 hour before the addition of synthetic androgen, R1881 (1 nM), to induce PSA production or vehicle. The total amount of plasmid DNA transfected was normalized to 0.75 μg/well by the addition of the empty vector. After 48 h of incubation with R1881, the cells were harvested, and relative luciferase activity was determined. Test compounds were added to the cells at various concentrations and activity for each treatment was normalized to the predicted maximal activity induction (in the absence of test compounds, vehicle only). Plotting of sigmoidal curves (Boltzmann Function) and IC50 calculations were done using OriginPro 8.1 Sofware (Northampton, Mass., USA). Furthermore, toxicity was assessed by both microscopic examination and reduction of protein levels. Solubility was assessed both macroscopically (cloudy media) and microscopically (formation of granules or crystals).

Structure (SMILES) | IC50
C#CCOCC(O)COc1ccc(C(C)(C)c2ccc(OCC(O)CO)cc2)cc1 (centres unmarked) [Compound 5, 3-(4-(2-(4-(2-hydroxy-3-(prop-2-ynyloxy)propoxy)phenyl)propan-2-yl)phenoxy)propane-1,2-diol] | 4500 nM
C#CCOC[C@@H](O)COc1ccc(C(C)(C)c2ccc(OC[C@H](O)CCl)cc2)cc1 [Compound 16] | 6940 nM
COCC(O)COc1ccc(C(C)(C)c2ccc(OCC(O)CCl)cc2)cc1 (centres unmarked) [Compound 30, 1-chloro-3-(4-(2-(4-(2-hydroxy-3-methoxypropoxy)phenyl)propan-2-yl)phenoxy)propan-2-ol] | 11500 nM
CC(C)OCC(O)COc1ccc(C(C)(C)c2ccc(OCC(O)COC(C)C)cc2)cc1 (centres unmarked) [Compound 31, 3,3′-(4,4′-(propane-2,2-diyl)bis(4,1-phenylene))bis(oxy)bis(1-isopropoxypropan-2-ol)] | 4500 nM
CC(C)OCC(O)COc1ccc(C(C)(C)c2ccc(OCC(O)CCl)cc2)cc1 (centres unmarked) [Compound 32, 1-chloro-3-(4-(2-(4-(2-hydroxy-3-isopropdxypropoxy)phenyl)propan-2-yl)phenoxy)propan-2-ol] | 4500 nM
CCCCOCC(O)COc1ccc(C(C)(C)c2ccc(OCC(O)COCCCC)cc2)cc1 (centres unmarked) [Compound 33, 3,3′-(4,4′-(propane-2,2-diyl)bis(4,1-phenylene))bis(oxy)bis(1-butoxypropan-2-ol)] | 700 nM
CCCCOCC(O)COc1ccc(C(C)(C)c2ccc(OCC(O)CCl)cc2)cc1 (centres unmarked) [Compound 34, 1-butoxy-3-(4-(2-(4-(3-chloro-2-hydroxypropoxy)phenyl)propan-2-yl)phenoxy)propan-2-ol] | 1740 nM

Continued, values first:

IC50 | Structure (SMILES)
1600 nM | C#CCOCC(O)COc1ccc(C(C)(C)c2ccc(OCC(O)CCl)cc2)cc1 (centres unmarked) [Compound 3, 1-chloro-3-(4-(2-(4-(2-hydroxy-3-(prop-2-ynyloxy)propoxy)phenyl)propan-2-YL)phenoxy)propan-2-ol]
2200 nM | C#CCOC[C@H](O)COc1ccc(C(C)(C)c2ccc(OC[C@@H](O)CCl)cc2)cc1 [Compound 10, (R)-1-chloro-3-(4-(2-(4-((S)-2-hydroxy-3-(prop-2-ynyloxy)propoxy)phenyl)propan-2-yl)phenoxy)propan-2-ol]
2200 nM | C#CCOC[C@H](O)COc1ccc(C(C)(C)c2ccc(OC[C@H](O)CCl)cc2)cc1 [Compound 12]
1300 nM | C#CCOC[C@@H](O)COc1ccc(C(C)(C)c2ccc(OC[C@@H](O)CCl)cc2)cc1 [Compound 18]
